Where two headings read alike, the source gives them in different places.
Test system: THP-1 cells
Experiment: THP-1 Soluble Protein Assay (LPS-stimulated; ELISA of TNF-a, TNF-R p75/80, TNF-R p55/60, IL-8)
Type: cell-based, human
Settings: Homo sapiens
[1] = THP-1, read-out: THP % inhibition @ 3 µM, 3 µM
[2] = THP-1, 3 µM, read-out: THP % Inhibition @ 3µM

Procedure: Each vial of cells are cultured for about two weeks prior to being used for an assay and then are used for only 4 to 6 weeks to screen compounds.
Plates are placed into an incubator set at 5% CO2 and at 37° C. After 4 hours of incubation, 300 ml/well of tissue culture supernatant (TCS) is removed for use in an TNF-a ELISA.
Percent change in each soluble protein evaluated from the "vehicle positive control" was calculated for each compound concentration with the following formula: % Change =(pg/ml (compound) - pg/ml (veh pos control))/(pg/ml (veh pos control) - pg/ml (veh neg control))x 100 [formula]
For the soluble protein (TNF-a, p75/80, p55/60, IL-8) studies under stimulated conditions, the mean pg/ml of duplicate wells were determined and the results expressed as percent change from "vehicle positive control".

Question: With `CC#CCOc1ccc(S(=O)(=O)N(C)C(C(=O)NO)C(C)(C)SCCn2ccnc2)cc1` (stereo not drawn) [Example 144, 2-({[4-(2-Butynyloxy)phenyl]sulfonyl)(methyl)amino]-N-hydroxy-3-methyl-3-{[2-(1H-imidazol-1-yl)ethyl]sulfanyl}butanamide] as the molecule, how does the inhibition at 3 µM [1] read?
Answer: The inhibition at 3 µM was 89%.

Question: `CC#CCOc1ccc(S(=O)(=O)N(C)C(C(=O)NO)C(C)(C)SCCCN2CCOCC2)cc1` (stereo not drawn) [Example 146] was tested. Which inhibition at 3 µM [1] did it give?
Answer: Its inhibition at 3 µM is 84%.

Question: For `CC#CCOc1ccc(S(=O)(=O)N(C)C(C(=O)NO)C(C)(C)SCCCN2CCN(C)CC2)cc1` (stereo not drawn) [Example 147, 2-({[4-(2-Butynyloxy)phenyl]sulfonyl)(methyl)amino]-N-hydroxy-3-methyl-3-{[2(4-methyl-1-ethyl-1-piperazinyl)propyl]sulfanyl}butanamide], which inhibition at 3 µM [1] is on record?
Answer: The inhibition at 3 µM was 89%.

Question: With `CC#CCOc1ccc(S(=O)(=O)N(C)C(C(=O)NO)C(C)(C)SC)cc1` (stereo not drawn) [Example 149, 2-[(4-But-2-ynyloxy-benenesulfonyl)-methyl-amino]-N-hydroxy-3-methyl-3-methylsulfanyl-butyramide] as the molecule, how does the inhibition at 3 µM [1] read?
Answer: The inhibition at 3 µM was 88%.

Question: How did the inhibition at 3 µM [1] turn out when `CC#CCOc1ccc(S(=O)(=O)N(C)C(C(=O)NO)C(C)(C)SCCC)cc1` (stereo not drawn) [Example 151, 2-[(4-But-2-ynyloxy-benenesulfonyl)-methyl-amino]-N-hydroxy-3-methyl-3-propylsulfanyl-butyramide] was run?
Answer: The inhibition at 3 µM was 82%.

Question: Which inhibition at 3 µM [1] does the source give for `CC#CCOc1ccc(S(=O)(=O)N(C)C(C(=O)NO)C(C)(C)SCc2ccccc2)cc1` (stereo not drawn) [Example 153, 2-[(4-But-2-ynyloxy-benenesulfonyl)-methyl-amino]-N-hydroxy-3-methyl-3-benzylsulfanyl-butyramide] here?
Answer: Its inhibition at 3 µM is 46%.

Question: Which inhibition at 3 µM [1] does the source give for `CC#CCOc1ccc(S(=O)(=O)N(C)[C@H](CSC)C(=O)NO)cc1` [Example 154] here?
Answer: Its inhibition at 3 µM is 90%.

Question: Which inhibition at 3 µM [1] does the source give for `CC#CCOc1ccc(S(=O)(=O)N(Cc2cccnc2)C(CSCc2ccccc2)C(=O)NO)cc1` (stereo not drawn) [Example 157, 3-(Benzylthio)-2-[[[4-(2-butynyloxy)phenyl]sulfonyl]pyridin-3-ylmethylamino]-N-hydroxypropanamide] here?
Answer: The inhibition at 3 µM was 79%.

Question: How did the inhibition at 3 µM [2] turn out when `CC#CCOc1ccc(S(=O)(=O)N2CCCSC(C)(C)[C@@H]2C(=O)NO)cc1` [Example 173] was run?
Answer: Its inhibition at 3 µM is 80%.

Question: `CC#CCOc1ccc(S(=O)(=O)N2CCCSC[C@@H]2C(=O)NO)cc1` [Example 174] was tested. Which inhibition at 3 µM [2] did it give?
Answer: Its inhibition at 3 µM is 80%.

Question: How did the inhibition at 3 µM [2] turn out when `CC#CCOc1ccc(S(=O)(=O)N2CCCS(=O)(=O)C[C@@H]2C(=O)NO)cc1` [Example 175] was run?
Answer: The inhibition at 3 µM was 83%.

Question: For `CC#CCOc1ccc(S(=O)(=O)NC(C(=O)NO)c2ccc(O)cc2)cc1` (stereo not drawn) [Example 176, 2-({[4-(2-Butynyloxy)phenyl]sulfonyl}amino)-N-hydroxy-2-(4-hydroxyphenyl)acetamide], which inhibition at 3 µM [1] is on record?
Answer: Its inhibition at 3 µM is 89%.

Question: With `C#CCOc1ccc(C(NS(=O)(=O)c2ccc(OCC#CC)cc2)C(=O)NO)cc1` (stereo not drawn) [Example 177, 2-({[4-(2-Butynyloxy)phenyl]sulfonyl}amino)-N-hydroxy-2-[4-(2-propynyloxy)phenyl]acetamide] as the molecule, how does the inhibition at 3 µM [1] read?
Answer: The inhibition at 3 µM was 64%.

Question: With `CC#CCOc1ccc(S(=O)(=O)N(C)C(C(=O)NO)c2ccc(OC)cc2)cc1` (stereo not drawn) [Example 178, 2-[{[4-(2-Butynyloxy)phenyl]sulfonyl}(methyl)amino]-N-hydroxy-2-(4-methoxyphenyl)acetamide] as the molecule, how does the inhibition at 3 µM [1] read?
Answer: Its inhibition at 3 µM is 91%.

Question: How did the inhibition at 3 µM [1] turn out when `CC#CCOc1ccc(S(=O)(=O)N(C)C(C(=O)NO)c2ccc(OCCN3CCOCC3)cc2)cc1` (stereo not drawn) [Example 179, 2-[{[4-(2-Butynyloxy)phenyl]sulfonyl}(methyl)amino]-N-hydroxy-2-{4-[2-(4-morpholinyl)ethoxy]phenyl}acetamide] was run?
Answer: Its inhibition at 3 µM is 97%.

Question: With `CC#CCOc1ccc(S(=O)(=O)N(C)C(C(=O)NO)c2ccc(OCCNC(=O)OC(C)(C)C)cc2)cc1` (stereo not drawn) [Example 180, tert-Butyl 2-{4-[1-[{[4-(2-butynyloxy)phenyl]sulfonyl}(methyl)amino]-2-(hydroxyamino)-2-oxoethyl]phenoxy}ethylcarbamate] as the molecule, how does the inhibition at 3 µM [1] read?
Answer: Its inhibition at 3 µM is 89%.

Question: How did the inhibition at 3 µM [1] turn out when `CC#CCOc1ccc(S(=O)(=O)N(C)C(C(=O)NO)c2ccc(OCCN)cc2)cc1` (stereo not drawn) [Example 181, 2-[4-(2-Aminoethoxy)phenyl]-2-[{[4-(2-butynyloxy)phenyl]sulfonyl}(methyl)amino]-N-hydroxyacetamide] was run?
Answer: Its inhibition at 3 µM is 92%.

Question: `CC#CCOc1ccc(S(=O)(=O)N(C)C(C(=O)NO)c2ccc(OCCN(C)C)cc2)cc1` (stereo not drawn) [Example 182, 2-[{[4-(2-Butynyloxy)phenyl]sulfonyl}(methyl)amino]-2-{4-[2-(dimethylamino)ethoxy]phenyl}-N-hydroxyacetamide] was tested. Which inhibition at 3 µM [1] did it give?
Answer: The inhibition at 3 µM was 92%.

Question: `CC#CCOc1ccc(S(=O)(=O)N(C)C(C(=O)NO)c2ccc(OCCN3CCCC3)cc2)cc1` (stereo not drawn) [Example 183, 2-[{[4-(2-Butynyloxy)phenyl]sulfonyl}(methyl)amino]-N-hydroxy-2-{4-[2-(1-pyrrolidinyl)ethoxy]phenyl}acetamide] was tested. Which inhibition at 3 µM [1] did it give?
Answer: The inhibition at 3 µM was 93%.

Question: How did the inhibition at 3 µM [1] turn out when `CC#CCOc1ccc(S(=O)(=O)N(C)C(C(=O)NO)c2ccc(OCCN3CCCC3=O)cc2)cc1` (stereo not drawn) [Example 184, 2-[{[4-(2-Butynyloxy)phenyl]sulfonyl}(methyl)amino]-N-hydroxy-2-{4-[2-(2-oxo-1-pyrrolidinyl)ethoxy]phenyl}acetamide] was run?
Answer: Its inhibition at 3 µM is 94%.

Question: For `CC#CCOc1ccc(S(=O)(=O)N(C)C(C(=O)NO)c2ccc(OCCN3CCN(C(=O)OC(C)(C)C)CC3)cc2)cc1` (stereo not drawn) [Example 185, tert-butyl 4-(2-{4-[1-[{[4-(2-butynyloxy)phenyl]sulfonyl}(methyl)amino]-2-(hydroxyamino)-2-oxoethyl]phenoxy}ethyl)-1-piperazinecarboxylate], which inhibition at 3 µM [1] is on record?
Answer: Its inhibition at 3 µM is 89%.

Question: For `CC#CCOc1ccc(S(=O)(=O)N(C)C(C(=O)NO)c2ccc(OCCN3CCNCC3)cc2)cc1` (stereo not drawn) [Example 186, 2-[{[4-(2-butynyloxy)phenyl]sulfonyl}(methyl)amino]-N-hydroxy-2-{4-[2-(1-piperazinyl)ethoxy]phenyl}acetamide], which inhibition at 3 µM [1] is on record?
Answer: Its inhibition at 3 µM is 93%.

Question: Which inhibition at 3 µM [1] does the source give for `CC#CCOc1ccc(S(=O)(=O)N(C)C(C(=O)NO)c2ccc(OCCCNC(=O)OC(C)(C)C)cc2)cc1` (stereo not drawn) [Example 187, tert-Butyl 3-{4-[1-[{[4-(2-butynyloxy)phenyl]sulfonyl}(methyl)amino]-2-(hydroxyamino)-2-oxoethyl]phenoxy}propylcarbamate] here?
Answer: Its inhibition at 3 µM is 91%.

Question: For `CC#CCOc1ccc(S(=O)(=O)N(C)C(C(=O)NO)c2ccc(OCCCN)cc2)cc1` (stereo not drawn) [Example 188, 2-[4-(3-Aminopropoxy)phenyl]-2-[{[4-(2-butynyloxy)phenyl]sulfonyl}(methyl)amino]-N-hydroxyacetamide], which inhibition at 3 µM [1] is on record?
Answer: The inhibition at 3 µM was 94%.

Question: With `CC#CCOc1ccc(S(=O)(=O)N(C)[C@@H](C(=O)NO)c2ccc(O[C@H]3CCN(C(=O)OC(C)(C)C)C3)cc2)cc1` [Example 189, tert-Butyl (3S)-3-{4-[(1R)-1-[{[4-(2-butynyloxy)phenyl]sulfonyl}(methyl)amino]-2-(hydroxyamino)-2-oxoethyl]phenoxy}-1-pyrrolidinecarboxylate] as the molecule, how does the inhibition at 3 µM [1] read?
Answer: Its inhibition at 3 µM is 92%.

Question: How did the inhibition at 3 µM [1] turn out when `CC#CCOc1ccc(S(=O)(=O)N(C)[C@@H](C(=O)NO)c2ccc(O[C@H]3CCNC3)cc2)cc1` [Example 190, (2R)-2-[{[4-(2-Butynyloxy)phenyl]sulfonyl}(methyl)amino]-N-hydroxy-2-{4-[(3S)-pyrrolidinyloxy]phenyl}ethanamide] was run?
Answer: Its inhibition at 3 µM is 94%.

Question: For `CC#CCOc1ccc(S(=O)(=O)N(C)C(C(=O)NO)c2ccc(OCCN(C)C(=O)OC(C)(C)C)cc2)cc1` (stereo not drawn) [Example 191], which inhibition at 3 µM [1] is on record?
Answer: Its inhibition at 3 µM is 90%.

Question: How did the inhibition at 3 µM [1] turn out when `CC#CCOc1ccc(S(=O)(=O)N(C)C(C(=O)NO)c2ccc(OCCNC)cc2)cc1` (stereo not drawn) [Example 192, 2-({[4-(2-Butynyloxy)phenyl]sulfonyl}(methyl)amino)-N-hydroxy-2-{4-[2-(methylamino)ethoxy]phenyl}acetamide] was run?
Answer: Its inhibition at 3 µM is 95%.

Question: `CC#CCOc1ccc(S(=O)(=O)N(C)C(C(=O)NO)c2ccc(OCCCNC(=O)OCC)cc2)cc1` (stereo not drawn) [Example 193, Ethyl 3-{4-[1-[{[4-(2-butynyloxy)phenyl]sulfonyl}(methyl)amino]-2-(hydroxyamino)-2-oxoethyl]phenoxy}propylcarbamate] was tested. Which inhibition at 3 µM [1] did it give?
Answer: The inhibition at 3 µM was 91%.

Question: `CC#CCOc1ccc(S(=O)(=O)N(C)C(C(=O)NO)c2ccc(OCCCNC(C)=O)cc2)cc1` (stereo not drawn) [Example 194, 2-{4-[3-(Acetylamino)propoxy]phenyl}-2-[{[4-(2-butynyloxy)phenyl]sulfonyl}(methyl)amino]-N-hydroxyacetamide] was tested. Which inhibition at 3 µM [1] did it give?
Answer: Its inhibition at 3 µM is 94%.

Question: Which inhibition at 3 µM [1] does the source give for `CC#CCOc1ccc(S(=O)(=O)N(C)C(C(=O)NO)c2ccc(OCCCNC(=O)OCCCC)cc2)cc1` (stereo not drawn) [Example 195, Butyl 3-{4-[1-[{[4-(2-butynyloxy)phenyl]sulfonyl}(methyl)amino]-2-(hydroxyamino)-2-oxoethyl]phenoxy}propylcarbamate] here?
Answer: Its inhibition at 3 µM is 90%.

Question: `CC#CCOc1ccc(S(=O)(=O)N(C)C(C(=O)NO)c2ccc(OCCCNS(C)(=O)=O)cc2)cc1` (stereo not drawn) [Example 197, 2-[{[4-(2-Butynyloxy)phenyl]sulfonyl}(methyl)amino]-N-hydroxy-2-(4-{3-[(methylsulfonyl)amino]propoxy}phenyl)acetamide] was tested. Which inhibition at 3 µM [1] did it give?
Answer: Its inhibition at 3 µM is 94%.

Question: Which inhibition at 3 µM [1] does the source give for `CC#CCOc1ccc(S(=O)(=O)N(C)C(C(=O)NO)c2ccc(OCCCNC(=O)Nc3ccccc3)cc2)cc1` (stereo not drawn) [Example 198, 2-(4-{3-[(Anilinocarbonyl)amino]propoxy}phenyl)-2-[{[4-(2-butynyloxy)phenyl]sulfonyl}(methyl)amino]-N-hydroxyacetamide] here?
Answer: Its inhibition at 3 µM is 92%.

Question: For `CC#CCOc1ccc(S(=O)(=O)N[C@@H](C(=O)NO)c2ccc(OCCNC(=O)OC(C)(C)C)cc2)cc1` [Example 199, tert-Butyl 2-{4-[(1R)-1-({[4-(2-butynyloxy)phenyl]sulfonyl}amino)-2-(hydroxyamino)-2-oxoethyl]phenoxy}ethylcarbamate], which inhibition at 3 µM [1] is on record?
Answer: The inhibition at 3 µM was 84%.

Question: `CC#CCOc1ccc(S(=O)(=O)N[C@@H](C(=O)NO)c2ccc(OCCN)cc2)cc1` [Example 200, (2R)-2-[4-(2-Aminoethoxy)phenyl]-2-({[4-(2-butynyloxy)phenyl]sulfonyl}amino)-N-hydroxyethanamide] was tested. Which inhibition at 3 µM [1] did it give?
Answer: The inhibition at 3 µM was 78%.

Question: `CC#CCOc1ccc(S(=O)(=O)N[C@@H](C(=O)NO)c2ccc(OCCNC(C)=O)cc2)cc1` [Example 201, (2R)-2-{4-[2-(Acetylamino)ethoxy]phenyl}-2-({[4-(2-butynyloxy)phenyl]sulfonyl}amino)-N-hydroxyethanamide] was tested. Which inhibition at 3 µM [1] did it give?
Answer: Its inhibition at 3 µM is 77%.

Source: EP1144368B1, “ACETYLENIC ALPHA-AMINO ACID-BASED SULFONAMIDE HYDROXAMIC ACID TACE INHIBITORS” (priority 1999, dated 2000)
